For 28 molecules, IC50 results are on record in patent publication US8637509B2, “Azaindazoles” (GlaxoSmithKline LLC, priority 2010, dated 2014).

The target in the experiment is T1, EZH2 (Homo sapiens, UniProt Q15910).
T1 construct: GRITS37108
T1 sequence (Q15910 whole entry): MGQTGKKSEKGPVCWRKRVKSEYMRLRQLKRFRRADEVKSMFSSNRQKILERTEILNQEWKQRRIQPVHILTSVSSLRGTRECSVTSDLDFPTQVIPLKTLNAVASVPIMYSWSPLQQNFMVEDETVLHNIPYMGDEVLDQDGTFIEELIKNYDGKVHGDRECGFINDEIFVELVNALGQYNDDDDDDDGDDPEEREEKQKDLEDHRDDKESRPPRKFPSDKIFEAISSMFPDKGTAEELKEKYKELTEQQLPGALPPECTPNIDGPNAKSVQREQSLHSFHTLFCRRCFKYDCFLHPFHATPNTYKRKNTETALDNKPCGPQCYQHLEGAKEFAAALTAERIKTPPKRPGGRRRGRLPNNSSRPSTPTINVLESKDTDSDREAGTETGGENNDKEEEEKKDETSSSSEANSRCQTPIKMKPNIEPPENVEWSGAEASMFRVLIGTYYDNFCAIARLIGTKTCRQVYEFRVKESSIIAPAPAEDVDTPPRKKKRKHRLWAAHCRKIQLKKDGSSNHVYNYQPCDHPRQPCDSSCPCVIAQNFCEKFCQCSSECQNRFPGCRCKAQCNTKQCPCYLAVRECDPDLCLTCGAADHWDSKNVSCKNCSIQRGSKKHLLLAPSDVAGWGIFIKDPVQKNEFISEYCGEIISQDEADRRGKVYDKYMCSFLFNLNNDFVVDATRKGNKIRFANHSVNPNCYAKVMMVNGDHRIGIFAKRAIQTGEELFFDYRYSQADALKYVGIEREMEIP
T1 sequence (O75530 whole entry partner): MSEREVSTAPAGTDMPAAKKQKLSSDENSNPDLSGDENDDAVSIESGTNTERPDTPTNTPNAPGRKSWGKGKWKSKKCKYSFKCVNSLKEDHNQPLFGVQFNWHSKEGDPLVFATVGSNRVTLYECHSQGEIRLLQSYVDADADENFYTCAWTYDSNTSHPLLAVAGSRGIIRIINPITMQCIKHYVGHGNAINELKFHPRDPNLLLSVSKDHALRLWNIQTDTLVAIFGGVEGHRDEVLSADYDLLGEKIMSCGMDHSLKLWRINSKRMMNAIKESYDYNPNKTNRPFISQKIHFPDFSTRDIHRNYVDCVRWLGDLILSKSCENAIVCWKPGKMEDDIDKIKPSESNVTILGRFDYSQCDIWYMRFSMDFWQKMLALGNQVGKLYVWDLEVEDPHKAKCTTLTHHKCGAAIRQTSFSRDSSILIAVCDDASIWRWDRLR
T1 sequence (Q15022 whole entry partner): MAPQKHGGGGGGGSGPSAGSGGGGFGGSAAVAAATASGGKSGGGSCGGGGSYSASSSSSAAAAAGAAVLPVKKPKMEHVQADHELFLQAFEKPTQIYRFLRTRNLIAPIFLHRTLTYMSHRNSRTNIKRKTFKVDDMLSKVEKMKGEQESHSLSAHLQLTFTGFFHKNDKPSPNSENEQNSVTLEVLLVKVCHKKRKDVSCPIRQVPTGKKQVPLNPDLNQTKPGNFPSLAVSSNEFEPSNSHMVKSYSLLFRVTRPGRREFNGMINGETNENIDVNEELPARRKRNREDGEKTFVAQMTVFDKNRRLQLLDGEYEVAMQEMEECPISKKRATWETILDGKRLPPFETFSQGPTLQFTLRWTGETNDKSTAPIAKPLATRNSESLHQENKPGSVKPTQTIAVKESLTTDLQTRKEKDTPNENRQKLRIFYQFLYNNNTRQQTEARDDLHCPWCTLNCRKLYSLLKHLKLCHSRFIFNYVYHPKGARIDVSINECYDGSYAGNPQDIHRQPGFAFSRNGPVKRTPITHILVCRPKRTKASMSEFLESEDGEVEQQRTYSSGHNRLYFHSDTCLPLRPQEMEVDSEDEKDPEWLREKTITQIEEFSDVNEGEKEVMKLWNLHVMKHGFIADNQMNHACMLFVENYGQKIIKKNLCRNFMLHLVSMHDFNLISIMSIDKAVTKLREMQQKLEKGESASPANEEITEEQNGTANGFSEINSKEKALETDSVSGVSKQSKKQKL
Put plainly: EZH2 methyltransferase SPA assay (3H-SAM, Hela nucleosomes). It is filed as biochemical. The note with it: read-out: IC50.
In the case of `Cc1cc(C)c(CNC(=O)c2cc(-c3ccc(-c4cn[nH]c4)cc3)nc3c2cnn3C(C)C)c(=O)[nH]1` [Ex 120, N-[(4,6-Dimethyl-2-oxo-1,2-dihydro-3-pyridinyl)methyl]-1-(1-methylethyl)-6-[4-(1H-pyrazol-4-yl)phenyl]-1H-pyrazolo[3,4-b]pyridine-4-carboxamide], the IC50 stood at 270 nM.
As for `Cc1cc(C)c(CNC(=O)c2cc(-c3ccc(N)cc3)nc3c2cnn3C(C)C)c(=O)[nH]1` [Ex 43, 6-(4-Aminophenyl)-N-[(4,6-dimethyl-2-oxo-1,2-dihydro-3-pyridinyl)methyl]-1-(1-methylethyl)-1H-pyrazolo[3,4-b]pyridine-4-carboxamide], the IC50 is 204 nM.
In the case of `Cc1cc(C)c(CNC(=O)c2cc(-c3ccc(NS(C)(=O)=O)cc3)nc3c2cnn3C(C)C)c(=O)[nH]1` [Ex 51, N-[(4,6-Dimethyl-2-oxo-1,2-dihydro-3-pyridinyl)methyl]-1-(1-methylethyl)-6-{4-[(methylsulfonyl]amino]phenyl}-1H-pyrazolo[3,4-b]pyridine-4-carboxamide] it was 161 nM.
`Cc1cc(C)c(CNC(=O)c2cc(NCCN(C)C)nc3c2cnn3C(C)C)c(=O)[nH]1` [Ex 56, 6-{[2-(Dimethylamino)ethyl]amino}-N-[(4,6-dimethyl-2-oxo-1,2-dihydro-3-pyridinyl)methyl]-1-(1-methylethyl)-1H-pyrazolo[3,4-b]pyridine-4-carboxamide]: the IC50 was found to be 2110 nM.
In the case of `Cc1cc(C)c(CNC(=O)c2cc(C3CC3)nc3c2c(C)nn3C2CCOCC2)c(=O)[nH]1` [Ex 112, 6-Cyclopropyl-N-[(4,6-dimethyl-2-oxo-1,2-dihydro-3-pyridinyl)methyl]-3-methyl-1-(tetrahydro-2H-pyran-4-yl)-1H-pyrazolo[3,4-b]pyridine-4-carboxamide] it was 693 nM; in that of `Cc1cc(C)c(CNC(=O)c2cc(-c3cn[nH]c3)nc3c2cnn3C(C)C)c(=O)[nH]1` [Ex 71, N-[(4,6-Dimethyl-2-oxo-1,2-dihydro-3-pyridinyl)methyl]-1-(1-methylethyl)-6-(1H-pyrazol-4-yl)-1H-pyrazolo[3,4-b]pyridine-4-carboxamide], 402 nM; in that of `Cc1cc(C)c(CNC(=O)c2cc(N3CCCCC3)nc3c2cnn3C(C)C)c(=O)[nH]1` [Ex 25, N-[(4,6-Dimethyl-2-oxo-1,2-dihydro-3-pyridinyl)methyl]-1-(1-methylethyl)-6-(1-piperidinyl)-1H-pyrazolo[3,4-b]pyridine-4-carboxamide], 685 nM.
`Cc1cc(C)c(CNC(=O)c2cc(-c3ccncc3)nc3c2c(C)nn3C(C)C)c(=O)[nH]1` [Ex 117, N-[(4,6-Dimethyl-2-oxo-1,2-dihydro-3-pyridinyl)methyl]-3-methyl-1-(1-methylethyl)-6-(4-pyridinyl)-1H-pyrazolo[3,4-b]pyridine-4-carboxamide]: the IC50 was found to be 190 nM.
In the case of `CNC(=O)c1ccc(-c2cc(C(=O)NCc3c(C)cc(C)[nH]c3=O)c3cnn(C(C)C)c3n2)cn1` [Ex 63, N-[(4,6-Dimethyl-2-oxo-1,2-dihydro-3-pyridinyl)methyl]-6-[6-[(methylamino)carbonyl]-3-pyridinyl]-1-(1-methylethyl)-1H-pyrazolo[3,4-b]pyridine-4-carboxamide], the IC50 was found to be 96 nM.
With `Cc1cc(C)c(CNC(=O)c2cc(-c3ccco3)nc3c2cnn3C(C)C)c(=O)[nH]1` [Ex 62, N-[(4,6-Dimethyl-2-oxo-1,2-dihydro-3-pyridinyl)methyl]-6-(2-furanyl)-1-(1-methylethyl)-1H-pyrazolo[3,4-b]pyridine-4-carboxamide] the figure was 581 nM; with `Cc1cc(C(C)C)c(CNC(=O)c2cc(-c3ccncc3)nc3c2cnn3C(C)C)c(=O)[nH]1` [Ex 12, 1-(1-Methylethyl)-N-{[6-methyl-4-(1-methylethyl)-2-oxo-1,2-dihydro-3-pyridinyl]methyl}-6-(4-pyridinyl)-1H-pyrazolo[3,4-b]pyridine-4-carboxamide], 55 nM; with `Cc1cc(C)c(CNC(=O)c2ccnc3c2cnn3C(C)C)c(=O)[nH]1` [Ex 22, N-[(4,6-Dimethyl-2-oxo-1,2-dihydro-3-pyridinyl)methyl]-1-(1-methylethyl)-1H-pyrazolo[3,4-b]pyridine-4-carboxamide], 1360 nM.
On to `COc1cc(-c2cc(C(=O)NCc3c(C)cc(C)[nH]c3=O)c3cnn(C(C)C)c3n2)ccn1` [Ex 59, N-[(4,6-Dimethyl-2-oxo-1,2-dihydro-3-pyridinyl)methyl]-1-(1-methylethyl)-6-[2-(methyloxy)-4-pyridinyl]-1H-pyrazolo[3,4-b]pyridine-4-carboxamide], for which the IC50 is 155 nM.
Turning to `Cc1cc(C)c(CNC(=O)c2cc(-c3ccc4c(c3)CC(=O)N4)nc3c2cnn3C(C)C)c(=O)[nH]1` [Ex 79, N-[(4,6-Dimethyl-2-oxo-1,2-dihydro-3-pyridinyl)methyl]-1-(1-methylethyl)-6-(2-oxo-2,3-dihydro-1H-indol-5-yl)-1H-pyrazolo[3,4-b]pyridine-4-carboxamide], the IC50 amounted to 140 nM.
In the case of `Cc1cc(C)c(CNC(=O)c2cc(-c3ccc4[nH]c(=O)[nH]c4c3)nc3c2c(C)nn3C(C)C)c(=O)[nH]1` [Ex 77, N-[(4,6-dimethyl-2-oxo-1,2-dihydro-3-pyridinyl)methyl]-3-methyl-1-(1-methylethyl)-6-(2-oxo-2,3-dihydro-1H-benzimidazol-5-yl)-1H-pyrazolo[3,4-b]pyridine-4-carboxamide] it was 52 nM.
With `Cc1cc(C)c(CNC(=O)c2cc(-c3ccc4[nH]c(=O)[nH]c4c3)nc3c2c(C)nn3C(C)(C)C)c(=O)[nH]1` [Ex 88, 1-(1,1-Dimethylethyl)-N-[(4,6-dimethyl-2-oxo-1,2-dihydro-3-pyridinyl)methyl]-3-methyl-6-(2-oxo-2,3-dihydro-1H-benzimidazol-5-yl)-1H-pyrazolo[3,4-b]pyridine-4-carboxamide] the figure was 52 nM.
With `CCc1cc(C)c(CNC(=O)c2cc(-c3ccncc3)nc3c2cnn3C(C)C)c(=O)[nH]1` [Ex 10, N-[(6-Ethyl-4-methyl-2-oxo-1,2-dihydro-3-pyridinyl)methyl]-1-(1-methylethyl)-6-(4-pyridinyl)-1H-pyrazolo[3,4-b]pyridine-4-carboxamide] the figure was 569 nM; with `Cc1cc(C)c(CNC(=O)c2cc(NCc3ccccc3)nc3c2cnn3C(C)C)c(=O)[nH]1` [Ex 35, N-[(4,6-Dimethyl-2-oxo-1,2-dihydro-3-pyridinyl)methyl]-1-(1-methylethyl)-6-[(phenylmethyl)amino]-1H-pyrazolo[3,4-b]pyridine-4-carboxamide], 673 nM; with `Cc1cc(C)c(CNC(=O)c2cc(C3CC3)nc3c2c(C)nn3C2CCCCC2)c(=O)[nH]1` [Ex 110, 1-Cyclohexyl-6-cyclopropyl-N-[(4,6-dimethyl-2-oxo-1,2-dihydro-3-pyridinyl)methyl]-3-methyl-1H-pyrazolo[3,4-b]pyridine-4-carboxamide], 231 nM.
As for `Cc1cc(-c2ccccc2)c(CNC(=O)c2cc(C3CC3)nc3c2cnn3C(C)C)c(=O)[nH]1` [Ex 17, 6-Cyclopropyl-1-(1-methylethyl)-N-[(6-methyl-2-oxo-4-phenyl-1,2-dihydro-3-pyridinyl)methyl]-1H-pyrazolo[3,4-b]pyridine-4-carboxamide], the IC50 is 2590 nM.
With `Cc1cc(C)c(CNC(=O)c2cc(N(C)C)nc3c2cnn3C(C)C)c(=O)[nH]1` [Ex 24, 6-(Dimethylamino)-N-[(4,6-dimethyl-2-oxo-1,2-dihydro-3-pyridinyl)methyl]-1-(1-methylethyl)-1H-pyrazolo[3,4-b]pyridine-4-carboxamide], the IC50 was found to be 873 nM.
In the case of `CC(=O)Nc1ccc(-c2cc(C(=O)NCc3c(C)cc(C)[nH]c3=O)c3c(C)nn(C(C)C)c3n2)cc1` [Ex 93, 6-[4-(Acetylamino)phenyl]-N-[(4,6-dimethyl-2-oxo-1,2-dihydro-3-pyridinyl)methyl]-3-methyl-1-(1-methylethyl)-1H-pyrazolo[3,4-b]pyridine-4-carboxamide] it was 83 nM; in that of `Cc1cc(C)c(CNC(=O)c2cc(Cl)nc3c2cnn3C(C)C)c(=O)[nH]1` [Ex 1, 6-Chloro-N-[(4,6-dimethyl-2-oxo-1,2-dihydro-3-pyridinyl)methyl]-1-(1-methylethyl)-1H-pyrazolo[3,4-b]pyridine-4-carboxamide], 475 nM; in that of `Cc1cc(C)c(CNC(=O)c2cc(-c3cnc4c(c3)CCC(=O)N4)nc3c2cnn3C(C)C)c(=O)[nH]1` [Ex 96, N-[(4,6-Dimethyl-2-oxo-1,2-dihydro-3-pyridinyl)methyl]-1-(1-methylethyl)-6-(7-oxo-1,5,6,7-tetrahydro-1,8-naphthyridin-3-yl)-1H-pyrazolo[3,4-b]pyridine-4-carboxamide], 57 nM.
Regarding `Cc1cc(C(F)(F)F)c(CNC(=O)c2cc(C3CC3)nc3c2cnn3C(C)C)c(=O)[nH]1` [Ex 23, 6-Cyclopropyl-1-(1-methylethyl)-N-{[6-methyl-2-oxo-4-(trifluoromethyl)-1,2-dihydro-3-pyridinyl]methyl}-1H-pyrazolo[3,4-b]pyridine-4-carboxamide], the IC50 was 1430 nM.
As to `Cc1cc(C)c(CNC(=O)c2cc(C#Cc3ccncc3)nc3c2cnn3C(C)C)c(=O)[nH]1` [Ex 33, N-[(4,6-Dimethyl-2-oxo-1,2-dihydro-3-pyridinyl)methyl]-1-(1-methylethyl)-6-(4-pyridinylethynyl)-1H-pyrazolo[3,4-b]pyridine-4-carboxamide], the IC50 was 70 nM.
In the case of `Cc1cc(C(=O)NCc2c(C)cc(C)[nH]c2=O)c2cnn(Cc3ccccc3)c2n1` [Ex 100, N-[(4,6-Dimethyl-2-oxo-1,2-dihydro-3-pyridinyl)methyl]-6-methyl-1-(phenylmethyl)-1H-pyrazolo[3,4-b]pyridine-4-carboxamide], the IC50 came out at 5750 nM.
In the case of `CC(=O)Nc1ccc(-c2cc(C(=O)NCc3c(C)cc(C)[nH]c3=O)c3cnn(C(C)C)c3n2)cn1` [Ex 69, 6-[6-(Acetylamino)-3-pyridinyl]-N-[(4,6-dimethyl-2-oxo-1,2-dihydro-3-pyridinyl)methyl]-1-(1-methylethyl)-1H-pyrazolo[3,4-b]pyridine-4-carboxamide] it was 25 nM.
